Where two headings read alike, the source gives them in different places.
What was measured:
[1] = tested on: Puccinia recondita; test: Fungicidal activity against Wheat Leaf Rust (WLR) disease; format: in vivo; settings: for WLR (Fungicidal Activities, C.V.): Wheat Leaf Rust
[2] = tested on: Pyricularia oryzae Carvara KA301; format: in vivo; settings: for RCV (Fungicidal Activities, C.V.): Rice Blast
[3] = tested on: Phytophthora infestans; format: in vivo; settings: for TLB (Fungicidal Activities, C.V.): Tomato Late Blight
[4] = tested on: Rhizoctonia solani AG-1; test: Fungicidal activity against Rice Sheath Blight (RSB) disease; settings: for RSB (Fungicidal Activities, C.V.): Rice Sheath Blight
[5] = tested on: Botrytis cinerae; test: Fungicidal activity against Cucumber Gray Mold Rot (CGM) disease; format: in vivo; settings: for CGM (Fungicidal Activities, C.V.): Cucumber Gray Mold Rot, concentration 50 ppm; for Fungicidal Activities CGM (C.V.): 50 ppm
[6] = tested on: Erysiphae graminis; test: Fungicidal activity against Barley Powdery Mildew (BPM) disease; format: in vivo; settings: for BPM (Fungicidal Activities, C.V.): Barley Powdery Mildew

CON=C(C(=O)OC)c1ccccc1CON=C(C)c1cccc(OC(F)=Cc2cccc(OC)c2)c1 [Compound 71]
WLR (Fungicidal Activities, C.V.) ([1]; concentration 2 ppm): 98%
WLR (Fungicidal Activities, C.V.) ([1]; concentration 50 ppm): 100%
RCV (Fungicidal Activities, C.V.) ([2]; concentration 2 ppm): 100%
RCV (Fungicidal Activities, C.V.) ([2]; concentration 50 ppm): 100%
TLB (Fungicidal Activities, C.V.) ([3]; concentration 2 ppm): 25%
TLB (Fungicidal Activities, C.V.) ([3]; concentration 50 ppm): 50%
RSB (Fungicidal Activities, C.V.) ([4]; concentration 2 ppm): 35%
RSB (Fungicidal Activities, C.V.) ([4]; concentration 50 ppm): 100%
CGM (Fungicidal Activities, C.V.) [5]: 25%
BPM (Fungicidal Activities, C.V.) ([6]; concentration 2 ppm): 100%
BPM (Fungicidal Activities, C.V.) ([6]; concentration 50 ppm): 100%

CNC(=O)C(=NOC)c1ccccc1CON=Cc1cccc(OC(F)=C(c2cccc(OC)c2)C(F)(F)F)c1 [Compound 143]
WLR (Fungicidal Activities, C.V.) ([1]; concentration 2 ppm): 36%
WLR (Fungicidal Activities, C.V.) ([1]; concentration 50 ppm): 90%
RCV (Fungicidal Activities, C.V.) ([2]; concentration 2 ppm): 83%
RCV (Fungicidal Activities, C.V.) ([2]; concentration 50 ppm): 100%
TLB (Fungicidal Activities, C.V.) ([3]; concentration 50 ppm): 0%
RSB (Fungicidal Activities, C.V.) ([4]; concentration 50 ppm): 58%
CGM (Fungicidal Activities, C.V.) [5]: 0%
BPM (Fungicidal Activities, C.V.) ([6]; concentration 2 ppm): 0%
BPM (Fungicidal Activities, C.V.) ([6]; concentration 50 ppm): 93%

COC=C(C(=O)OC)c1ccccc1CON=C(C)c1cccc(OC(F)=C(c2cc(Cl)cc(Cl)c2)C(F)(F)F)c1 [Compound 164]
Fungicidal Activities WLR (C.V.) ([1]; 2 ppm): 60%
Fungicidal Activities WLR (C.V.) ([1]; 10 ppm): 95%
Fungicidal Activities WLR (C.V.) ([1]; 50 ppm): 96%
Fungicidal Activities RCV (C.V.) ([2]; 50 ppm): 41%
Fungicidal Activities TLB (C.V.) ([3]; 50 ppm): 0%
Fungicidal Activities RSB (C.V.) ([4]; 50 ppm): 20%
Fungicidal Activities CGM (C.V.) [5]: 36%
Fungicidal Activities BPM (C.V.) ([6]; 2 ppm): 71%
Fungicidal Activities BPM (C.V.) ([6]; 10 ppm): 99%
Fungicidal Activities BPM (C.V.) ([6]; 50 ppm): 100%

COC=C(C(=O)OC)c1ccccc1CON=C(c1cccc(OC(F)=Cc2ccc3c(c2)OCO3)c1)C(F)(F)F [Compound 94]
WLR (Fungicidal Activities, C.V.) ([1]; concentration 2 ppm): 93%
WLR (Fungicidal Activities, C.V.) ([1]; concentration 10 ppm): 96%
WLR (Fungicidal Activities, C.V.) ([1]; concentration 50 ppm): 100%
RCV (Fungicidal Activities, C.V.) ([2]; concentration 2 ppm): 99%
RCV (Fungicidal Activities, C.V.) ([2]; concentration 10 ppm): 100%
RCV (Fungicidal Activities, C.V.) ([2]; concentration 50 ppm): 100%
TLB (Fungicidal Activities, C.V.) ([3]; concentration 50 ppm): 68%
RSB (Fungicidal Activities, C.V.) ([4]; concentration 50 ppm): 60%
CGM (Fungicidal Activities, C.V.) [5]: 54%
BPM (Fungicidal Activities, C.V.) ([6]; concentration 2 ppm): 100%
BPM (Fungicidal Activities, C.V.) ([6]; concentration 10 ppm): 100%
BPM (Fungicidal Activities, C.V.) ([6]; concentration 50 ppm): 100%

CON=C(C(=O)OC)c1ccccc1CON=Cc1cccc(OC(F)=C(c2ccc(F)cc2)C(F)(F)F)c1 [Compound 135]
WLR (Fungicidal Activities, C.V.) ([1]; concentration 2 ppm): 94%
WLR (Fungicidal Activities, C.V.) ([1]; concentration 50 ppm): 100%
RCV (Fungicidal Activities, C.V.) ([2]; concentration 2 ppm): 43%
RCV (Fungicidal Activities, C.V.) ([2]; concentration 50 ppm): 86%
TLB (Fungicidal Activities, C.V.) ([3]; concentration 50 ppm): 0%
RSB (Fungicidal Activities, C.V.) ([4]; concentration 2 ppm): 20%
RSB (Fungicidal Activities, C.V.) ([4]; concentration 50 ppm): 61%
CGM (Fungicidal Activities, C.V.) [5]: 71%
BPM (Fungicidal Activities, C.V.) ([6]; concentration 2 ppm): 93%
BPM (Fungicidal Activities, C.V.) ([6]; concentration 50 ppm): 100%

COC=C(C(=O)OC)c1ccccc1CON=Cc1cccc(OC(F)=C(c2cccc(C)c2)C(F)(F)F)c1 [Compound 104]
WLR (Fungicidal Activities, C.V.) ([1]; concentration 2 ppm): 66%
WLR (Fungicidal Activities, C.V.) ([1]; concentration 10 ppm): 93%
WLR (Fungicidal Activities, C.V.) ([1]; concentration 50 ppm): 97%
RCV (Fungicidal Activities, C.V.) ([2]; concentration 2 ppm): 25%
RCV (Fungicidal Activities, C.V.) ([2]; concentration 10 ppm): 75%
RCV (Fungicidal Activities, C.V.) ([2]; concentration 50 ppm): 96%
TLB (Fungicidal Activities, C.V.) ([3]; concentration 50 ppm): 0%
RSB (Fungicidal Activities, C.V.) ([4]; concentration 50 ppm): 45%
CGM (Fungicidal Activities, C.V.) [5]: 0%
BPM (Fungicidal Activities, C.V.) ([6]; concentration 2 ppm): 80%
BPM (Fungicidal Activities, C.V.) ([6]; concentration 10 ppm): 99%
BPM (Fungicidal Activities, C.V.) ([6]; concentration 50 ppm): 100%

CCOc1ccc(C=C(F)Oc2cccc(C=NOCc3ccccc3C(=NOC)C(=O)NC)c2)cc1 [Compound 36]
WLR (Fungicidal Activities, C.V.) ([1]; concentration 2 ppm): 0%
WLR (Fungicidal Activities, C.V.) ([1]; concentration 50 ppm): 93%
RCV (Fungicidal Activities, C.V.) ([2]; concentration 2 ppm): 88%
RCV (Fungicidal Activities, C.V.) ([2]; concentration 50 ppm): 100%
TLB (Fungicidal Activities, C.V.) ([3]; concentration 50 ppm): 0%
RSB (Fungicidal Activities, C.V.) ([4]; concentration 50 ppm): 0%
CGM (Fungicidal Activities, C.V.) [5]: 0%
BPM (Fungicidal Activities, C.V.) ([6]; concentration 2 ppm): 0%
BPM (Fungicidal Activities, C.V.) ([6]; concentration 50 ppm): 100%

CON=C(C(=O)OC)c1ccccc1CON=C(C)c1cccc(OC(F)=C(c2cccc(OC)c2)C(F)(F)F)c1 [Compound 180]
Fungicidal Activities WLR (C.V.) ([1]; 2 ppm): 97%
Fungicidal Activities WLR (C.V.) ([1]; 50 ppm): 100%
Fungicidal Activities RCV (C.V.) ([2]; 2 ppm): 86%
Fungicidal Activities RCV (C.V.) ([2]; 50 ppm): 100%
Fungicidal Activities TLB (C.V.) ([3]; 50 ppm): 56%
Fungicidal Activities RSB (C.V.) ([4]; 2 ppm): 25%
Fungicidal Activities RSB (C.V.) ([4]; 50 ppm): 60%
Fungicidal Activities CGM (C.V.) [5]: 56%
Fungicidal Activities BPM (C.V.) ([6]; 2 ppm): 98%
Fungicidal Activities BPM (C.V.) ([6]; 50 ppm): 100%

CNC(=O)C(=NOC)c1ccccc1CON=Cc1cccc(OC(F)=C(c2ccccc2)C(F)(F)F)c1 [Compound 139]
WLR (Fungicidal Activities, C.V.) ([1]; concentration 2 ppm): 93%
WLR (Fungicidal Activities, C.V.) ([1]; concentration 50 ppm): 98%
RCV (Fungicidal Activities, C.V.) ([2]; concentration 2 ppm): 53%
RCV (Fungicidal Activities, C.V.) ([2]; concentration 50 ppm): 100%
TLB (Fungicidal Activities, C.V.) ([3]; concentration 50 ppm): 46%
RSB (Fungicidal Activities, C.V.) ([4]; concentration 2 ppm): 10%
RSB (Fungicidal Activities, C.V.) ([4]; concentration 50 ppm): 20%
CGM (Fungicidal Activities, C.V.) [5]: 0%
BPM (Fungicidal Activities, C.V.) ([6]; concentration 2 ppm): 97%
BPM (Fungicidal Activities, C.V.) ([6]; concentration 50 ppm): 98%

COC=C(C(=O)OC)c1ccccc1CON=C(C)c1cccc(OC(F)=C(c2ccc(Br)cc2)C(F)(F)F)c1 [Compound 165]
Fungicidal Activities WLR (C.V.) ([1]; 2 ppm): 86%
Fungicidal Activities WLR (C.V.) ([1]; 10 ppm): 96%
Fungicidal Activities WLR (C.V.) ([1]; 50 ppm): 100%
Fungicidal Activities RCV (C.V.) ([2]; 50 ppm): 80%
Fungicidal Activities TLB (C.V.) ([3]; 50 ppm): 6%
Fungicidal Activities RSB (C.V.) ([4]; 50 ppm): 45%
Fungicidal Activities CGM (C.V.) [5]: 68%
Fungicidal Activities BPM (C.V.) ([6]; 2 ppm): 71%
Fungicidal Activities BPM (C.V.) ([6]; 10 ppm): 99%
Fungicidal Activities BPM (C.V.) ([6]; 50 ppm): 100%

CON=C(C(=O)OC)c1ccccc1CON=C(C)c1cccc(OC(F)=C(c2ccc(Cl)cc2)C(F)(F)F)c1 [Compound 185]
Fungicidal Activities WLR (C.V.) ([1]; 2 ppm): 95%
Fungicidal Activities WLR (C.V.) ([1]; 50 ppm): 100%
Fungicidal Activities RCV (C.V.) ([2]; 2 ppm): 73%
Fungicidal Activities RCV (C.V.) ([2]; 50 ppm): 96%
Fungicidal Activities TLB (C.V.) ([3]; 2 ppm): 25%
Fungicidal Activities TLB (C.V.) ([3]; 50 ppm): 50%
Fungicidal Activities RSB (C.V.) ([4]; 2 ppm): 25%
Fungicidal Activities RSB (C.V.) ([4]; 50 ppm): 75%
Fungicidal Activities CGM (C.V.) [5]: 0%
Fungicidal Activities BPM (C.V.) ([6]; 2 ppm): 98%
Fungicidal Activities BPM (C.V.) ([6]; 50 ppm): 100%

COC=C(C(=O)OC)c1ccccc1CON=C(C)c1cccc(OC(F)=Cc2ccc(C)cc2)c1 [Compound 42]
WLR (Fungicidal Activities, C.V.) ([1]; concentration 2 ppm): 98%
WLR (Fungicidal Activities, C.V.) ([1]; concentration 10 ppm): 100%
WLR (Fungicidal Activities, C.V.) ([1]; concentration 50 ppm): 100%
RCV (Fungicidal Activities, C.V.) ([2]; concentration 2 ppm): 58%
RCV (Fungicidal Activities, C.V.) ([2]; concentration 10 ppm): 96%
RCV (Fungicidal Activities, C.V.) ([2]; concentration 50 ppm): 100%
TLB (Fungicidal Activities, C.V.) ([3]; concentration 50 ppm): 97%
RSB (Fungicidal Activities, C.V.) ([4]; concentration 50 ppm): 70%
CGM (Fungicidal Activities, C.V.) [5]: 64%
BPM (Fungicidal Activities, C.V.) ([6]; concentration 2 ppm): 100%
BPM (Fungicidal Activities, C.V.) ([6]; concentration 10 ppm): 100%
BPM (Fungicidal Activities, C.V.) ([6]; concentration 50 ppm): 100%

CON=C(C(=O)OC)c1ccccc1CON=Cc1cccc(OC(F)=Cc2ccccc2)c1 [Compound 24]
WLR (Fungicidal Activities, C.V.) ([1]; concentration 2 ppm): 95%
WLR (Fungicidal Activities, C.V.) ([1]; concentration 10 ppm): 97%
WLR (Fungicidal Activities, C.V.) ([1]; concentration 50 ppm): 99%
RCV (Fungicidal Activities, C.V.) ([2]; concentration 2 ppm): 28%
RCV (Fungicidal Activities, C.V.) ([2]; concentration 10 ppm): 88%
RCV (Fungicidal Activities, C.V.) ([2]; concentration 50 ppm): 97%
TLB (Fungicidal Activities, C.V.) ([3]; concentration 50 ppm): 33%
RSB (Fungicidal Activities, C.V.) ([4]; concentration 2 ppm): 44%
RSB (Fungicidal Activities, C.V.) ([4]; concentration 10 ppm): 72%
RSB (Fungicidal Activities, C.V.) ([4]; concentration 50 ppm): 95%
CGM (Fungicidal Activities, C.V.) [5]: 50%
BPM (Fungicidal Activities, C.V.) ([6]; concentration 2 ppm): 95%
BPM (Fungicidal Activities, C.V.) ([6]; concentration 10 ppm): 100%
BPM (Fungicidal Activities, C.V.) ([6]; concentration 50 ppm): 100%
